From PMC2783333 (Nature chemical biology, 2009)
Read-outs that look alike come from different tables or passages of the source.

Legend:
MARTXVc CPD [1] = settings: cited from earlier work
[2] = target: V. vulnificus CMCP6 VV20479 MARTX CPD (Vibrio vulnificus, UniProt A0A2S3R7M0); type: biochemical; settings: 10 µM InsP6
[3] = tested on: P. luminescens TTO1 MARTX CPDs (Plu3217, Plu3324, Plu1341, Plu1344); type: biochemical, Photorhabdus luminescens
MARTXVc CPD [4] = type: biochemical, Vibrio cholerae; settings: read-out: AC50 (InsP6 for 50% cleavage)

Compound: Nc1nc2c(ncn2[C@@H]2O[C@H](COP(=O)(O)OP(=O)(O)OP(O)(O)=S)[C@@H](O)[C@H]2O)c(=O)[nH]1 [GTPγS, guanosine 5′-[γ-thio]triphosphate]
- potency as activator of the CPD (MARTXVc CPD [1]): much less potent activator

Compound: O=P(O)(O)OC1C(OP(=O)(O)O)C(OP(=O)(O)O)C(OP(=O)(O)O)C(OP(=O)(O)O)C1OP(=O)(O)O (centres unmarked) [InsP6, inositol hexakisphosphate]
- InsP6-dependent autoprocessing [2]: underwent InsP6-dependent autoprocessing
- InsP6-dependent autoprocessing [3]: underwent InsP6-dependent autoprocessing
- AC50 (MARTXVc CPD [4]): 0.76 ± 0.27 nM
- AC50 (MARTXVc CPD [1]; read-out: AC50 (InsP6 for half-maximal autocleavage)): 0.91 ± 0.1 nM
